Test results reported in paper PMC9150124, “Design of a Potent, Selective, and Brain-Penetrant Inhibitor of Wnt-Deactivating Enzyme Notum by Optimization of a Crystallographic Fragment Hit” (Journal of Medicinal Chemistry, 2022).

Assays:
Assay in all cases: SelectScreen kinase profiling, SSBK ZLyte SP Technology
Type in all cases: biochemical
[1] = target: kinase named in conditions (Homo sapiens, UniProt Q9NYY3); conditions: PLK2, 10 μM
Procedure: (§1) Kinase selectivity screening was performed by Thermo Fisher Scientific (Paisley, U.K.) in their SelectScreen Biochemical Kinase Profiling Service. Assay information and data are presented in the Supporting Information.
(§2) Kinase selectivity screening was performed by ThermoFisher Scientific (Paisley, U.K.) in their SelectScreenTM
(§3) Biochemical Kinase Profiling service .

[2] = target: kinase named in conditions (Homo sapiens, UniProt P24941); conditions: CDK2/cyclin A, 10 μM
Procedure: as §1, §2, §3

[3] = target: kinase named in conditions (Homo sapiens, UniProt P15735); conditions: PHKG2, 10 μM
Procedure: as §1, §2, §3

[4] = target: kinase named in conditions (Homo sapiens, UniProt Q15418); conditions: RPS6KA1 (RSK1), 10 μM
Procedure: as §1, §2, §3

[5] = target: kinase named in conditions (Homo sapiens, UniProt Q52WX2); conditions: SBK1, 10 μM
Procedure: as §1, §2, §3

[6] = target: kinase named in conditions (Homo sapiens, UniProt Q08881); conditions: ITK, 10 μM
Procedure: as §1, §2, §3

[7] = target: kinase named in conditions (Homo sapiens, UniProt Q9H2X6); conditions: HIPK2, 10 μM
Procedure: as §1, §2, §3

[8] = target: kinase named in conditions (Homo sapiens, UniProt P51817); conditions: PRKX, 10 μM
Procedure: as §1, §2, §3

[9] = target: kinase named in conditions (Homo sapiens, UniProt Q16539); conditions: 10 μM
Procedure: as §1, §2, §3

[10] = target: kinase named in conditions (Homo sapiens, UniProt P00533, C797S); conditions: EGFR (ErbB1) C797S, 10 μM
Procedure: as §1, §2, §3

[11] = target: kinase named in conditions (Homo sapiens, UniProt Q06418); conditions: TYRO3 (RSE), 10 μM
Procedure: as §1, §2, §3

[12] = target: kinase named in conditions (Homo sapiens, UniProt Q14680); conditions: MELK, 10 μM
Procedure: as §1, §2, §3

[13] = target: kinase named in conditions (Homo sapiens, UniProt O60674, V617F); conditions: JAK2 JH1 JH2 V617F, 10 μM
Procedure: as §1, §2, §3

[14] = target: kinase named in conditions (Homo sapiens, UniProt Q9BUB5); conditions: MKNK1 (MNK1), 10 μM
Procedure: as §1, §2, §3

[15] = target: kinase named in conditions (Homo sapiens, UniProt Q07002); conditions: CDK18/cyclin Y, 10 μM
Procedure: as §1, §2, §3

[16] = target: kinase named in conditions (Homo sapiens, UniProt P80192); conditions: MAP3K9 (MLK1), 10 μM
Procedure: as §1, §2, §3

[17] = target: kinase named in conditions (Homo sapiens, UniProt P05771); conditions: PRKCB1 (PKC beta I), 10 μM
Procedure: as §1, §2, §3

[18] = target: kinase named in conditions (Homo sapiens, UniProt P51813); conditions: BMX, 10 μM
Procedure: as §1, §2, §3

[19] = target: kinase named in conditions (Homo sapiens, UniProt P11362); conditions: FGFR1, 10 μM
Procedure: as §1, §2, §3

[20] = target: kinase named in conditions (Homo sapiens, UniProt Q8N752); conditions: CSNK1A1L, 10 μM
Procedure: as §1, §2, §3

[21] = target: kinase named in conditions (Homo sapiens, UniProt P06239); conditions: LCK, 10 μM
Procedure: as §1, §2, §3

[22] = target: kinase named in conditions (Homo sapiens, UniProt Q05397); conditions: PTK2 (FAK), 10 μM
Procedure: as §1, §2, §3

[23] = target: kinase named in conditions (Homo sapiens, UniProt P00533, T790M); conditions: EGFR (ErbB1) T790M, 10 μM
Procedure: as §1, §2, §3

[24] = target: kinase named in conditions (Homo sapiens, UniProt P42679); conditions: MATK (HYL), 10 μM
Procedure: as §1, §2, §3

[25] = target: kinase named in conditions (Homo sapiens, UniProt Q8IY84); conditions: NIM1K, 10 μM
Procedure: as §1, §2, §3

[26] = target: kinase named in conditions (Homo sapiens, UniProt P07947); conditions: YES1, 10 μM
Procedure: as §1, §2, §3

[27] = target: kinase named in conditions (Homo sapiens, UniProt Q86V86); conditions: PIM3, 10 μM
Procedure: as §1, §2, §3

[28] = target: kinase named in conditions (Homo sapiens, UniProt P04629); conditions: NTRK1 (TRKA), 10 μM
Procedure: as §1, §2, §3

[29] = target: kinase named in conditions (Homo sapiens, UniProt P00519, G250E); conditions: ABL1 G250E, 10 μM
Procedure: as §1, §2, §3

[30] = target: kinase named in conditions (Homo sapiens, UniProt P41743); conditions: PRKCI (PKC iota), 10 μM
Procedure: as §1, §2, §3

[31] = target: kinase named in conditions (Homo sapiens, UniProt P17948); conditions: FLT1 (VEGFR1), 10 μM
Procedure: as §1, §2, §3

[32] = target: kinase named in conditions (Homo sapiens, UniProt P53779); conditions: MAPK10 (JNK3), 10 μM
Procedure: as §1, §2, §3

[33] = target: kinase named in conditions (Homo sapiens, UniProt Q9Y6E0); conditions: STK24 (MST3), 10 μM
Procedure: as §1, §2, §3

[34] = target: kinase named in conditions (Homo sapiens, UniProt Q13976); conditions: PRKG1, 10 μM
Procedure: as §1, §2, §3

Chain of kinase named in conditions (Homo sapiens, UniProt Q16539) (Q16539 whole entry): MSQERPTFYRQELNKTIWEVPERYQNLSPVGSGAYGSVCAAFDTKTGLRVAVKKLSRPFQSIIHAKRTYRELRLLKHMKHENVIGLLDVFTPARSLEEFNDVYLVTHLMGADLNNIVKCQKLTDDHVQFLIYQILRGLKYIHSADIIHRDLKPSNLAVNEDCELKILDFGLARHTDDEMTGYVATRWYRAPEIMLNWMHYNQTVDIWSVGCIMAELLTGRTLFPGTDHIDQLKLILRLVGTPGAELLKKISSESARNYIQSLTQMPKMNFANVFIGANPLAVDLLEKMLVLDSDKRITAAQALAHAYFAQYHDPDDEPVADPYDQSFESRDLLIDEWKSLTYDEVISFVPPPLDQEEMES
Chain of kinase named in conditions (Homo sapiens, UniProt P17948) (P17948 27-1338): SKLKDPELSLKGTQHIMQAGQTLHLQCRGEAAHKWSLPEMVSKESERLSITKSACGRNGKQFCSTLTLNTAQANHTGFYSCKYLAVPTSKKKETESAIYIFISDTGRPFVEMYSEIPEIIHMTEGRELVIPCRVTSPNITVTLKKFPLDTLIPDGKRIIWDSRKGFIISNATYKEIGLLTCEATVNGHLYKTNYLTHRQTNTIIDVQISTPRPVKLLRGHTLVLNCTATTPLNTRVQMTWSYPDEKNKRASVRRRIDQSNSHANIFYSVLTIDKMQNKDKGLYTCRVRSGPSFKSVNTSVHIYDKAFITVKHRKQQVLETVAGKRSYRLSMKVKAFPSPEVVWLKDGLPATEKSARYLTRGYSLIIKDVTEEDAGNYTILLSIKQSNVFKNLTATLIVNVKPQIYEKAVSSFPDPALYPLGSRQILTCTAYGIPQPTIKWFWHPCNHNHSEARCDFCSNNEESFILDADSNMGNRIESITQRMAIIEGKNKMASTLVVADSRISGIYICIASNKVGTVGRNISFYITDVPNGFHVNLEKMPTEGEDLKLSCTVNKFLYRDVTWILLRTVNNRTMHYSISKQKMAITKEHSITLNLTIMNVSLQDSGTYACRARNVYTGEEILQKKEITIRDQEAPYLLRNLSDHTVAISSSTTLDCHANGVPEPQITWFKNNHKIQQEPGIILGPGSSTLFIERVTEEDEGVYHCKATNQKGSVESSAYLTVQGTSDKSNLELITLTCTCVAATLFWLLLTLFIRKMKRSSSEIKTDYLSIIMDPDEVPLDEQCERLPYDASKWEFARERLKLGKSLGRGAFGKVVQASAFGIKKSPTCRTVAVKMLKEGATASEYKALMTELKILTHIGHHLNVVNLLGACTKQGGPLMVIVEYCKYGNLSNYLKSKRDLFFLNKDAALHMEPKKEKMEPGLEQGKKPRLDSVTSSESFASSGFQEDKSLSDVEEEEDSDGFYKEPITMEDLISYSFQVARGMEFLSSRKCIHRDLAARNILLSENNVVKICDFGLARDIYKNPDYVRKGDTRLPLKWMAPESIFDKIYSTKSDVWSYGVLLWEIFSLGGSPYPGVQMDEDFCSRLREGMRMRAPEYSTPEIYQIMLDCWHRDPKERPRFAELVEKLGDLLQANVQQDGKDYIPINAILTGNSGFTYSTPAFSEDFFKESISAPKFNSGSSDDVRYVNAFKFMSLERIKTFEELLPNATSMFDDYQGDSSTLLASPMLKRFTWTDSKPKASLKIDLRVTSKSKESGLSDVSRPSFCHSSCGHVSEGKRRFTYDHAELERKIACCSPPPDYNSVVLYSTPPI
Chain of kinase named in conditions (Homo sapiens, UniProt Q8N752) (Q8N752 whole entry): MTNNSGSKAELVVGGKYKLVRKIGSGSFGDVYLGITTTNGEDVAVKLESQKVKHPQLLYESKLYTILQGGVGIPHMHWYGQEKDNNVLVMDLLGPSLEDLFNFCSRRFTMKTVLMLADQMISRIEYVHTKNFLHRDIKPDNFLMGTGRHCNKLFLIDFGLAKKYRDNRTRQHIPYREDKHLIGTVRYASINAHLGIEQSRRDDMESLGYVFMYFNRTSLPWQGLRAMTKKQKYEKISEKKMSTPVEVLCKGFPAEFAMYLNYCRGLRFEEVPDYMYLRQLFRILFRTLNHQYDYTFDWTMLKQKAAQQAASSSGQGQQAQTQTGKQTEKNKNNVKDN
Chain of kinase named in conditions (Homo sapiens, UniProt P07947) (P07947 whole entry): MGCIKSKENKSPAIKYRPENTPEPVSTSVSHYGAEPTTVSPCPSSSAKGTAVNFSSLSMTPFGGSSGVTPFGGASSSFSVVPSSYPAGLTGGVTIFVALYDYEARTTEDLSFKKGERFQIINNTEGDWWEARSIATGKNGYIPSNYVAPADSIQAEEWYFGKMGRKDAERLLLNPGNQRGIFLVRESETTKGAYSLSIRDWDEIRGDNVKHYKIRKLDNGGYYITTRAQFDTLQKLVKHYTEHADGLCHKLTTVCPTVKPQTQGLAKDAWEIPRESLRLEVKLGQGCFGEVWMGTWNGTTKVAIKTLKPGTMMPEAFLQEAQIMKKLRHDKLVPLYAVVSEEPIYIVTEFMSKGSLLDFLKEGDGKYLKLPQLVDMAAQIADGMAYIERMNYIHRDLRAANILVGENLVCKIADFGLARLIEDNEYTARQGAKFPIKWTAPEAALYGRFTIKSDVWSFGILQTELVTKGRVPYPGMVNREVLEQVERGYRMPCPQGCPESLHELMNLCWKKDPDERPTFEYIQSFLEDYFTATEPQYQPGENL
Chain of kinase named in conditions (Homo sapiens, UniProt Q13976) (Q13976 whole entry): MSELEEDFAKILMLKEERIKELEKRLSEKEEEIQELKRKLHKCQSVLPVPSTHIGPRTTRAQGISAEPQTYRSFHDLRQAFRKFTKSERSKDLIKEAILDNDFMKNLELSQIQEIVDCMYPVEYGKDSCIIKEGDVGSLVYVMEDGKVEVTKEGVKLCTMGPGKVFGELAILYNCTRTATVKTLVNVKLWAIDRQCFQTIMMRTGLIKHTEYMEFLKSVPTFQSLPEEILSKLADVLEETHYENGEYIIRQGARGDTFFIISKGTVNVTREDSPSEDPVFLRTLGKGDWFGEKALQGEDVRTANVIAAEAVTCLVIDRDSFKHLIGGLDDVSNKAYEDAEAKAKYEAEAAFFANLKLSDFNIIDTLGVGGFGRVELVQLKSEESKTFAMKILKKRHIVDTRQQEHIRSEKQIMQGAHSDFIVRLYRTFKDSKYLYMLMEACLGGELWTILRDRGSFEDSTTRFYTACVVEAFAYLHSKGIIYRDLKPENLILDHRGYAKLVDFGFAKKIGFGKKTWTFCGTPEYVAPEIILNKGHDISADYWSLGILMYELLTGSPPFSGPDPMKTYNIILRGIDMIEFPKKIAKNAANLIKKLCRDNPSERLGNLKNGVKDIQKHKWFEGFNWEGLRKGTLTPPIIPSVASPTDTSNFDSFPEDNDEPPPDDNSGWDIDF
Chain of kinase named in conditions (Homo sapiens, UniProt Q9BUB5) (Q9BUB5 whole entry): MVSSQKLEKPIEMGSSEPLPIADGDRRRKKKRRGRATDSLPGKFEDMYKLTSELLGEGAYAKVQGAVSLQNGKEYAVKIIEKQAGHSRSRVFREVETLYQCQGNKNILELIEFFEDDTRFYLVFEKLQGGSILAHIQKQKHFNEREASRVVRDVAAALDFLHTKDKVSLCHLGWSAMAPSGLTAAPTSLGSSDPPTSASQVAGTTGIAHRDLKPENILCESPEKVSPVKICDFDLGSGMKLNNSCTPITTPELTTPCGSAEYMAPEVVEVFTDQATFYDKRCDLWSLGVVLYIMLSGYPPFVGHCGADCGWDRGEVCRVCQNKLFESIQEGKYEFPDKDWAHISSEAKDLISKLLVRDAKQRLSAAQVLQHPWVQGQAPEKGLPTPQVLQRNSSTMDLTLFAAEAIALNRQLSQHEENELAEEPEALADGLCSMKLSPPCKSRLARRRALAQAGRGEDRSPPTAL
Chain of kinase named in conditions (Homo sapiens, UniProt P06239) (P06239 whole entry): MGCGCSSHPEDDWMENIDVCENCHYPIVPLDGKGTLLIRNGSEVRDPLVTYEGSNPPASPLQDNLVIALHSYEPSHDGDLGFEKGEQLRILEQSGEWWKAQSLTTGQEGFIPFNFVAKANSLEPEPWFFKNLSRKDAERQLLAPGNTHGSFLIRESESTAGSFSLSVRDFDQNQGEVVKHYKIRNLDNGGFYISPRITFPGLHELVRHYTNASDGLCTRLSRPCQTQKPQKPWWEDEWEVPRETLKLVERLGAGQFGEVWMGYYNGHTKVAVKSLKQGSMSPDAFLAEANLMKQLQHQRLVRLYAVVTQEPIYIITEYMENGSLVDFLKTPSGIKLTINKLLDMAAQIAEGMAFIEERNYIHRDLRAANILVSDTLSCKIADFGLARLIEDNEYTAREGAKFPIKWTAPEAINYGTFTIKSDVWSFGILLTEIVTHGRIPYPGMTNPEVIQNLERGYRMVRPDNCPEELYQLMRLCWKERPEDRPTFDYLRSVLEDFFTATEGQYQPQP
Chain of kinase named in conditions (Homo sapiens, UniProt Q9Y6E0) (Q9Y6E0 whole entry): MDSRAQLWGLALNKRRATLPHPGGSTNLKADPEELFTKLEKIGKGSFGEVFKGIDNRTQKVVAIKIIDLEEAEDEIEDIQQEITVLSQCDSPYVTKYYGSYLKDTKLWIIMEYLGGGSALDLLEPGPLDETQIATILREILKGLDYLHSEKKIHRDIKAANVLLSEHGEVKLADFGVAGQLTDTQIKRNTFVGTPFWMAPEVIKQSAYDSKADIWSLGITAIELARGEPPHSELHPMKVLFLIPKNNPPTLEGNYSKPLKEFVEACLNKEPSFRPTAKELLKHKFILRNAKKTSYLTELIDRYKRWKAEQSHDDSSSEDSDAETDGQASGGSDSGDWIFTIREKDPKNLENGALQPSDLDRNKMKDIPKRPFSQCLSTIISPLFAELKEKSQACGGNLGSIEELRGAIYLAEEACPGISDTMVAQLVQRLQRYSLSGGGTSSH

**Q.** FC(F)(F)c1c(Cl)ccc(-n2ccnn2)c1Cl [8l, 1-(2,4-Dichloro-3-(trifluoromethyl)phenyl)-1H-1,2,3-triazole] was tested. Which inhibition at 10 µM [1] did it give?
**A.** The inhibition at 10 µM was 15%.

**Q.** What about the inhibition at 10 µM [2] of the same compound?
**A.** Its inhibition at 10 µM is 6%.

**Q.** And the inhibition at 10 µM [3]?
**A.** Its inhibition at 10 µM is 8%.

**Q.** What about the inhibition at 10 µM [4] of the same compound?
**A.** The inhibition at 10 µM was 8%.

**Q.** And the inhibition at 10 µM [5]?
**A.** Its inhibition at 10 µM is 2%.

**Q.** What about the inhibition at 10 µM [6] of the same compound?
**A.** The inhibition at 10 µM was -4%.

**Q.** What about the inhibition at 10 µM [7] of the same compound?
**A.** Its inhibition at 10 µM is 2%.

**Q.** And the inhibition at 10 µM [8]?
**A.** The inhibition at 10 µM was 6%.

**Q.** What about the inhibition at 10 µM ([9]; MAPK14 (p38 alpha) Direct) of the same compound?
**A.** The inhibition at 10 µM was -3%.

**Q.** What about the inhibition at 10 µM ([9]; MAPK14 (p38 alpha)) of the same compound?
**A.** Its inhibition at 10 µM is -1%.

**Q.** What about the inhibition at 10 µM [10] of the same compound?
**A.** Its inhibition at 10 µM is -2%.

**Q.** What about the inhibition at 10 µM [11] of the same compound?
**A.** The inhibition at 10 µM was 5%.

**Q.** What about the inhibition at 10 µM [12] of the same compound?
**A.** Its inhibition at 10 µM is 12%.

**Q.** And the inhibition at 10 µM [13]?
**A.** Its inhibition at 10 µM is -4%.

**Q.** And the inhibition at 10 µM [14]?
**A.** Its inhibition at 10 µM is 0%.

**Q.** What about the inhibition at 10 µM [15] of the same compound?
**A.** The inhibition at 10 µM was 4%.

**Q.** What about the inhibition at 10 µM [16] of the same compound?
**A.** Its inhibition at 10 µM is -4%.

**Q.** And the inhibition at 10 µM [17]?
**A.** Its inhibition at 10 µM is 0%.

**Q.** And the inhibition at 10 µM [18]?
**A.** The inhibition at 10 µM was 7%.

**Q.** And the inhibition at 10 µM [19]?
**A.** The inhibition at 10 µM was -3%.

**Q.** And the inhibition at 10 µM [20]?
**A.** The inhibition at 10 µM was -2%.

**Q.** And the inhibition at 10 µM [21]?
**A.** Its inhibition at 10 µM is 33%.

**Q.** What about the inhibition at 10 µM [22] of the same compound?
**A.** The inhibition at 10 µM was 4%.

**Q.** And the inhibition at 10 µM [23]?
**A.** The inhibition at 10 µM was 9%.

**Q.** And the inhibition at 10 µM [24]?
**A.** The inhibition at 10 µM was -11%.

**Q.** And the inhibition at 10 µM [25]?
**A.** Its inhibition at 10 µM is 5%.

**Q.** And the inhibition at 10 µM [26]?
**A.** The inhibition at 10 µM was 3%.

**Q.** What about the inhibition at 10 µM [27] of the same compound?
**A.** Its inhibition at 10 µM is 6%.

**Q.** What about the inhibition at 10 µM [28] of the same compound?
**A.** The inhibition at 10 µM was 3%.

**Q.** And the inhibition at 10 µM [29]?
**A.** The inhibition at 10 µM was 8%.

**Q.** What about the inhibition at 10 µM [30] of the same compound?
**A.** Its inhibition at 10 µM is 4%.

**Q.** What about the inhibition at 10 µM [31] of the same compound?
**A.** Its inhibition at 10 µM is 8%.

**Q.** What about the inhibition at 10 µM [32] of the same compound?
**A.** Its inhibition at 10 µM is -1%.

**Q.** What about the inhibition at 10 µM [33] of the same compound?
**A.** The inhibition at 10 µM was 5%.

**Q.** What about the inhibition at 10 µM [34] of the same compound?
**A.** Its inhibition at 10 µM is 15%.
